The values that follow come from ChEMBL document CHEMBL1201862, “PubChem BioAssay data set” (2004).

Among the test systems are MOLT-4; A498; NCI-H460; SNB-19; Malme-3M; SNB-75; SW-620; COLO 205; HCC 2998; MDA-MB-435; NCI/ADR-RES; HOP-92; SK-MEL-28; RXF 393; SF-539; UACC-62; NCI-H23; OVCAR-8; UACC-257; MDA-MB-231.
Common to all, as to test: inhibition of tumour cell growth, NCI panel, 48 h

SMILES strings stand for the structures.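 Test compounds were applied to cells in 96-well plates for 48 hours at 5 doses. Abbreviation: GI50, concentration required for 50% inhibition of growth.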 Activity calls are given as the source filed them. Cut-off read from the data, not from the text of the source: active = GI50 up to about 1.1 µM and inactive = higher.

In the case of `COC(=O)c1ccc(O)c2nc3c(C=O)c(O)cc(O)c3nc12` [LOMOFUNGIN], the GI50 in the assay on MOLT-4 is 0.225 µM (active); in the assay on A498, 1.22 µM (inactive); with NCI-H460 it was 0.413 µM (active); with SNB-19 it was 1.9 µM (inactive); in the assay with Malme-3M, 2.07 µM (inactive); in the assay on SNB-75, 1.78 µM (inactive). In addition, the GI50 in the assay on SW-620 is 0.641 µM (active); in the assay with COLO 205 it was 3.1 µM (inactive); in the assay on HCC 2998, 4.93 µM (inactive); in the assay with MDA-MB-435, 0.935 µM (active); in the assay on NCI/ADR-RES, 0.0998 µM (active); in the assay on HOP-92 it was 1.2 µM (inactive). In addition, the GI50 was 1.93 µM (inactive) with SK-MEL-28; 7.18 µM (inactive) in the assay with RXF 393; 0.0585 µM (active) with SF-539; 1.27 µM (inactive) in the assay on UACC-62; 0.139 µM (active) with NCI-H23; 0.0439 µM (active) in the assay on OVCAR-8. The values for the GI50 with UACC-257 and in the assay with MDA-MB-231 were 0.782 µM (active) and 3.17 µM (inactive), respectively.

For `c1ccc(CCN2CCc3[nH]c4ccccc4c3C2)cc1`, the GI50 was 26.5 µM (inactive) in the assay on MOLT-4; 13.9 µM (inactive) with A498; 13.7 µM (inactive) in the assay with NCI-H460; 20.8 µM (inactive) in the assay with SNB-19; 17.1 µM (inactive) in the assay with Malme-3M; 29 µM (inactive) with SNB-75. Also, the GI50 with SW-620 is 16.1 µM (inactive); with COLO 205, > 10 µM (inactive); in the assay with HCC 2998, 16.3 µM (inactive); with MDA-MB-435, 17.4 µM (inactive); in the assay with NCI/ADR-RES, 20.3 µM (inactive); with HOP-92, 11.9 µM (inactive). Besides, the GI50 is 20 µM (inactive) in the assay with SK-MEL-28; 17.5 µM (inactive) in the assay on RXF 393; 22.8 µM (inactive) with SF-539; > 10 µM (inactive) in the assay with UACC-62; 30.5 µM (inactive) in the assay on NCI-H23; 20.4 µM (inactive) in the assay on OVCAR-8. Also, the GI50 is 14.9 µM (inactive) with UACC-257 and 33 µM (inactive) in the assay on MDA-MB-231.
